Measured values reported in patent publication US20040058901A1, “Crystalline ethanolate solvate form of zafirluskast process for manufacture and pharmaceutical compositions thereof” (priority 2000, published 2004).
“And” between values parts separate entries of the source, which are not always exact repeats. Equal values may be shown once. “Also recorded” adds a separate entry of the source. Read-outs that look alike come from different tables or passages of the source.

How the values were obtained:
[1] = cited from earlier work; for physical stability of the solid form: as disclosed in U.S. Pat. No. 5,993,859
[2] = as disclosed in U.S. Pat. No. 5,993,859; cited from earlier work
[3] = Drying of zafirlukast ethanolate in an air oven (weight loss, physical properties); format: physicochemical; settings: 105±1° C., 4 hours
Description: Preferably, the methods further comprise the step of drying the crystals of zafirlukast ethanolate. Effective drying methods include vacuum oven drying, air oven or simple vacuum desiccator drying. The ethanolate is stable at ambient temperature and will tolerate vacuum drying. When vacuum oven drying is used, one must exercise caution to avoid breaking the ethanolate. Preferred drying conditions for the ethanol solvate are about 30 to about 70° C. vacuum oven drying and are about 30 to about 105° C. at air oven drying.
5.0 g of zafirlukast Forms A, B or X, prepared according to U.S. Pat. No. 5,993,859 or zafirlukast, prepared according to J. Med. Chem., v. 33, 1781 (1990) were dissolved in hot acetone (50 mL). The solution was concentrated under reduced pressure to the volume of about 20 mL, heated to reflux and absolute ethanol (100 mL) was added to the solution. Acetone was distilled off from the stirred mixture through a 10 cm Vigreux column equipped with a distillation head until the temperature of vapor in the head of the column reached 78° C. The resulting mixture was kept overnight at the room temperature. The precipitated crystals were filtered off, washed on filter with ice cold absolute ethanol (2×5 mL) and dried under reduced pressure at 60° C. (water bath) to give crystalline zafirlukast ethanolate with mp 130-132° C.

[4] = Hygroscopicity comparison in controlled humidity chambers, Karl Fisher water content; format: physicochemical; settings: compared with zafirlukast Form A; 25° C./60% relative humidity and 40° C./75% relative humidity, two weeks
Description: Hygroscopicities of zafirlukast ethanolate and zafirlukast Form A were compared by maintaining samples in controlled humidity chambers at 25° C. under 60% relative humidity and at 40° C. under 75% relative humidity for a period of two weeks, followed by Karl Fisher analysis of water content.

[5] = Physical stability of zafirlukast ethanolate and its compositions; format: physicochemical
[6] = high relative humidity and elevated temperatures

COc1cc(C(=O)NS(=O)(=O)c2ccccc2C)ccc1Cc1cn(C)c2ccc(NC(=O)OC3CCCC3)cc12 [Form B, cyclopentyl 3-[2-methoxy-4-[(o-tolylsulfonyl)carbamoyl]benzyl]-1-methylindole-5-carbamate]
physical stability of the solid form [1]: physically unstable

COc1cc(C(=O)NS(=O)(=O)c2ccccc2C)ccc1Cc1cn(C)c2ccc(NC(=O)OC3CCCC3)cc12 [Form X, cyclopentyl 3-[2-methoxy-4-[(o-tolylsulfonyl)carbamoyl]benzyl]-1-methylindole-5-carbamate]
bioavailability [2]: relatively poor bioavailability | physical stability of the solid form [1]: physically stable

CCO.COc1cc(C(=O)NS(=O)(=O)c2ccccc2C)ccc1Cc1cn(C)c2ccc(NC(=O)OC3CCCC3)cc12 [zafirlukast ethanolate]
change of physical properties on drying (mp, 1H NMR, infra-red spectra) [3]: without substantial change of physical properties | weight loss on drying [3]: < 1% and 0.86% | hygroscopicity [4]: less hygroscopic than other known forms of zafirlukast; also recorded: less hygroscopic than Form A of zafirlukast | physical stability of the solid form [5]: relatively stable | stability at ambient temperature ([5]; ambient temperature): stable | stability under high relative humidity and elevated temperatures [5, 6]: stable

COc1cc(C(=O)NS(=O)(=O)c2ccccc2C)ccc1Cc1cn(C)c2ccc(NC(=O)OC3CCCC3)cc12 [Form A, cyclopentyl 3-[2-methoxy-4-[(o-tolylsulfonyl)carbamoyl]benzyl]-1-methylindole-5-carbamate]
bioavailability [2]: relatively good bioavailability | form conversion under high relative humidity and elevated temperatures [1, 6]: conversion of form A into form B occurs
